In BindingDB's records for doi:10.1016/j.bioorg.2015.02.008 (University of Strasburg, 2015):

Molecular target: T1, 1-deoxy-D-xylulose 5-phosphate reductoisomerase (Escherichia coli (strain K12), UniProt P45568)
T1 sequence (P45568 whole entry): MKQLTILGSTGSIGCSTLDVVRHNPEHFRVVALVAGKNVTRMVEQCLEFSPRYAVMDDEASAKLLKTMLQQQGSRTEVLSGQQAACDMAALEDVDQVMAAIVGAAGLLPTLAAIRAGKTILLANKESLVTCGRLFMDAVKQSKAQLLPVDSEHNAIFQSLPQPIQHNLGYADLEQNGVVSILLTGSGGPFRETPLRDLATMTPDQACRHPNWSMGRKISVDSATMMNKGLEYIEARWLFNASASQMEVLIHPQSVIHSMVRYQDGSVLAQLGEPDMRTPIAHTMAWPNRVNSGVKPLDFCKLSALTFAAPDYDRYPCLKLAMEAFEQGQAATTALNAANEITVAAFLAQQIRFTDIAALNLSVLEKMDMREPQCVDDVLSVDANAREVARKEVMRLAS
Assay: DXR Inhibition Assay
Description: H-DXR was pre-incubated during 2 min in the presence of the inhibitors at different concentrations and DXP (480 µM). NADPH (160 µM final concentration) was then added to measure the residual activity. The flavonoids are poorly soluble in water. Flavonoids solutions at different concentrations were prepared in DMSO by serial dilutions from 100 mM stock solutions. […] The inhibition mechanism of myricetin was studied by preincubating H-DXR with DXP at varied concentrations (96 480 µM) and fixed concentrations of myricetin (0.5, 1 and 2 µM). The enzymatic reaction was initiated by NADPH (final concentration160 µM). Fosmidomycin was used as a positive reference.

SMILES	IC50
O=c1c(O)c(-c2cc(O)c(O)c(O)c2)oc2cc(O)cc(O)c12	1500 nM
O=c1cc(-c2ccccc2)oc2cc(O)c(O)c(O)c12	2200 nM
O=c1c(O)c(-c2ccc(O)c(O)c2)oc2cc(O)cc(O)c12 [2-(3,4-dihydroxyphenyl)-3,5,7-trihydroxy-chromone;hydrate]	1900 nM
O=c1c(O)c(-c2ccc(O)c(O)c2)oc2cc(O)ccc12 [2-(3,4-dihydroxyphenyl)-3,7-dihydroxy-chromen-4-one]	3500 nM
O=c1cc(-c2ccc(O)c(O)c2)oc2cc(O)cc(O)c12 [2-(3,4-dihydroxyphenyl)-5,7-dihydroxy-4H-chromen-4-one]	3400 nM
